# Reference: patent US20080312435A1, “Imine Compound” (TAISHO PHARMACEUTICAL CO., LTD., priority 2004, published 2008)
# System: not given
# Experiment: not given
# Conditions: not given
row,Structure (SMILES),melting point [°C]
1,Cc1c(C(C)(C)C)s/c(=N\C(=O)c2cccc(C(F)(F)F)c2)n1C,140 to 142
2,Cc1c(C(C)(C)C)s/c(=N\C(=O)c2cccc(C#N)c2)n1C,131 to 133
3,COc1ccc(C(F)(F)F)cc1C(=O)/N=c1\cc(C(C)(C)C)on1CC1CC1,64 to 65
4,COc1ccc(C(=O)/N=c2\sc(C(C)(C)C)c(C)n2C)c(OC)c1,138 to 140
5,Cc1c(C(C)(C)C)s/c(=N\C(=O)c2cccc(C(F)(F)F)c2)n1CCN,76 to 78
6,O=C(/N=c1\ccccn1CCC1CC1)c1cccc(C(F)(F)F)c1F,56 to 58
7,Cc1c(C(C)(C)C)s/c(=N\C(=O)c2cccc(N3CCOCC3)c2)n1CC1CC1,114 to 115
8,Cn1c(C2CC2)c/c(=N\C(=O)c2cccc(C(F)(F)F)c2F)n1-c1ccccc1,168.5 to 169.5
9,Cn1c(C(C)(C)C)c/c(=N\C(=O)c2cccc(Cl)c2Cl)n1CC1CC1,158 to 159
10,CCn1c(C)c(C(C)(C)C)s/c1=N\C(=O)CC1CCCC1,149 to 150
11,Cc1c(C(C)(C)C)s/c(=N\C(=O)c2cc(F)cc(C(F)(F)F)c2)n1CC1CC1,100 to 102
12,Cc1ccccc1C(=O)/N=c1/sc2cc(F)cc(F)c2n1CC1CC1,146 to 148
13,CCn1c(C)c(C(C)(C)C)s/c1=N\C(=O)c1cc(C(F)(F)F)ccc1C,63 to 65
14,O=C(/N=c1\sccn1CC1CC1)c1cccc(C(F)(F)F)c1F,96 to 97
15,COCCn1/c(=N/C(=O)c2cccc(C(F)(F)F)c2F)cc(C)n1C,144 to 145
16,CCn1c(C)c(C(C)C)s/c1=N\C(=O)c1cccc(C(F)(F)F)c1F,64 to 66
17,O=C(/N=c1\ccccn1CC1CC1)c1cc(F)ccc1C(F)(F)F,88.5 to 89
18,Cc1c(C(C)(C)C)s/c(=N\C(=O)c2ccc(Cl)cc2)n1CC1CC1,94 to 95
19,O=C(/N=c1\ccc(C(F)(F)F)cn1CC1CC1)c1cc(C(F)(F)F)ccc1F,109 to 110
20,Cn1c(C(C)(C)C)c/c(=N\C(=O)C(F)(F)F)n1CC1CC1,122 to 124

row,Structure (SMILES),melting point [°C]
1,O=C(/N=c1\ccccn1CC1CC1)c1cccc(C(F)(F)F)c1,105.5 to 106.5
2,Cc1c(C(C)(C)C)s/c(=N\C(=O)c2cc(C(F)(F)F)ccc2N2CCCCC2)n1CC1CC1,138 to 140
3,O=C(/N=c1\ccc(C(F)(F)F)cn1CC1CC1)c1cccc(C(F)(F)F)c1,84 to 85
4,COC(=O)c1ccc(C(=O)/N=c2\sc(C(C)(C)C)c(C)n2CC2CC2)cc1,122 to 123
5,CC(C)n1cccc/c1=N\C(=O)c1cccc(C(F)(F)F)c1F,86 to 88
6,Cc1s/c(=N\C(=O)c2ccc(Br)cc2F)n(CC2CC2)c1C,154 to 155
7,COCCCn1/c(=N/C(=O)c2cccc(C(F)(F)F)c2F)cc(C)n1C,88 to 90
8,Cc1cc2s/c(=N\C(=O)c3ccccc3C)n(CC3CC3)c2cc1C,160 to 161
9,Cc1c(C(=O)NCCN2CCOCC2)s/c(=N\C(=O)c2cccc(C(F)(F)F)c2)n1CC1CC1,156 to 158
10,CCN(CC)c1ccc(C(F)(F)F)cc1C(=O)/N=c1\sc(C(C)(C)C)c(C)n1CC1CC1,131 to 133
11,CCn1c(C)c(C(C)(C)C)s/c1=N\C(=O)C(F)(F)C(F)(F)C(F)(F)F,113 to 115
12,CCOCCn1cccc/c1=N\C(=O)c1cccc(C(F)(F)F)c1F,104.5 to 105.5
13,Cc1c(C(C)(C)C)s/c(=N\C(=O)c2cccc(C(=O)O)c2)n1C,250 to 252
14,Cc1cccc(C(=O)/N=c2\cc(C(C)(C)C)n(C)n2CC2CC2)c1I,147 to 148
15,CCN(CC)c1ccc(C(=O)/N=c2\sc(C(C)(C)C)c(C)n2CC2CC2)cc1,134 to 136
16,O=C(/N=c1\ccccn1CC1CC1)c1cc(C(F)(F)F)ccc1F,127 to 127.5
17,O=C(/N=c1\ccc(C(F)(F)F)cn1CC1CC1)c1ccccc1C(F)(F)F,93 to 93.5
18,CC(C)c1s/c(=N\C(=O)c2cncc(Br)c2)n(CC2CC2)c1C(F)(F)F,139 to 141
19,CCn1c(C)cs/c1=N\C(=O)c1cccc(C(F)(F)F)c1F,48 to 50
20,CCn1c(C)c(C(C)(C)C)s/c1=N\C(=O)c1cccc(C(F)(F)F)c1,158 to 160

row,Structure (SMILES),melting point [°C]
1,Cc1c(C(C)(C)C)s/c(=N\C(=O)c2cccnc2)n1C.Cl,202 to 203
2,COc1cc(C(=O)/N=c2\sc(C(C)(C)C)c(C)n2CC2CC2)c(OC)nn1,124 to 126
3,Cc1c(C(C)(C)C)s/c(=N\C(=O)c2cccc(C(N)=O)c2)n1CC1CC1,76 to 78
4,Cc1s/c(=N\C(=O)C(F)(F)C(F)(F)C(F)(F)F)n(CC2CC2)c1C,92 to 94
5,CC(C)(C)c1nn(CC2CC2)/c(=N/C(=O)c2cnccc2Cl)s1,62 to 63
6,C=CCn1c(-c2ccccc2)c(-c2ccccc2)s/c1=N\C(=O)c1ccccc1,141 to 143
7,Cc1ccc(C(=O)/N=c2\sc(C(C)(C)C)c(C)n2CC2CC2)cn1,228 to 230
8,Cn1c(C(C)(C)C)c/c(=N\C(=O)c2cccc(Br)c2F)n1CC1CC1,127 to 128
9,CCn1cccc/c1=N\C(=O)c1cccc(C(F)(F)F)c1F,93 to 95
10,COCCNC1=C(C(=O)/N=c2\sc(C(C)(C)C)c(C)n2CC2CC2)CC(C(F)(F)F)C=C1 (centres unmarked),131 to 132
11,Cc1c(C(C)(C)C)s/c(=N\C(=O)c2cccc(F)c2F)n1C,176 to 178
12,Cc1ccccc1C(=O)/N=c1\sc2ccccc2n1CC1CC1,115 to 117
13,Cc1ccc(C(=O)/N=c2\cc(C(C)(C)C)n(C)n2CC2CC2)cc1Cl,135 to 136
14,Cc1ccccc1C(=O)/N=c1/sc2cccc(Cl)c2n1CC1CC1,146 to 148
15,COc1cc(Cl)ccc1C(=O)/N=c1\cc(C(C)(C)C)n(C)n1CC1CC1,128 to 129
16,Cc1c(C(C)(C)C)s/c(=N\C(=O)c2cccc(N(C)C)c2)n1C,189 to 190
17,CCn1cc(C)s/c1=N\C(=O)c1cccc(C(F)(F)F)c1F,90 to 92
18,Cn1c(C(F)(F)F)c(-c2ccccc2)/c(=N\C(=O)c2cccc(C(F)(F)F)c2F)n1C,169.5 to 170
19,O=C(/N=c1\sc2c(n1CC1CC1)CCCC2)c1cccc(C(F)(F)F)c1,159 to 160

# Biological target: T1, human CB2 receptor (Homo sapiens, UniProt P34972)
# T1 construct: expressed in transfected cells
# Experiment: Human CB2 receptor binding inhibition test ([3H]CP-55,940, CHO membrane fractions)
# Conditions: not given
# Excerpt: Human CB2 Receptor Binding Inhibition Test
# First, cDNA sequence (Munro et al., Nature, 1993, 365, 61-65) encoding a human CB2 receptor was inserted in the forward direction in an animal-cell expression vector, pTARGET Vector (manufactured by Promega) at a region downstream of a CMV promoter. Host cells CHO-DHFR(−) were transfected with the obtained expression vector with the aid of Lipofectamine (manufactured by Invitrogen) to obtain cells capable of stably expressing the CB2 receptor.
# After the filtrate was washed with an assay buffer containing 0.1% bovine serum albumin, the radioactivity on the glass filter was measured by a liquid scintillation counter. Nonspecific binding was measured in the presence of 2.0 μM CP-55,940 (manufactured by Tocris). 50% inhibitory concentration (IC50 value) of the test compound for the specific binding was obtained.
# T1 sequence (P34972 whole entry): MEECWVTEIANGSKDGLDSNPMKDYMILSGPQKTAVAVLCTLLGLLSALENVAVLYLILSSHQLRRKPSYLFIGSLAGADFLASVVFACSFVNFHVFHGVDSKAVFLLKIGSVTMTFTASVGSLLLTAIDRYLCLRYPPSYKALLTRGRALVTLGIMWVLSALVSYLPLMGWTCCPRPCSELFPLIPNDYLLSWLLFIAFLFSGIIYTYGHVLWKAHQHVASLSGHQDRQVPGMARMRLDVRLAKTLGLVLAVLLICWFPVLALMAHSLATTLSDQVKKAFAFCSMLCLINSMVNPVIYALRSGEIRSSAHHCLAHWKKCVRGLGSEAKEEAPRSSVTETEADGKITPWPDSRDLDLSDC
row,Structure (SMILES),IC50 [nM]
1,"Cn1c(C(C)(C)C)c/c(=N\C(=O)c2cccc(C(F)(F)F)c2Cl)n1CC1CC1 [Compound No. 476, N-(5-t-butyl-2-cyclopropylmethyl-1,2-dihydro-1-methylpyrazol-3-ylidene)-2-chloro-3-(trifluoromethyl)benzamide]",3.9

# Same assay, conditions: [3H]CP-55,940, membrane fractions of CHO cells stably expressing human CB2 receptor, 25° C., 2 hours; read-out: CB2 IC50 (Inhibition of binding to human CB2 receptor)
row,Structure (SMILES),IC50 [nM]
1,COc1ccccc1C(=O)/N=c1\sc(C(C)(C)C)c(C)n1CC1CC1 [compound 195],3.2
2,Cc1c(C(C)(C)C)s/c(=N\C(=O)c2cccc(C#N)c2)n1CC1CC1 [compound 211],12
3,Cc1cc(C)c(S(=O)(=O)/N=c2\sc(C(C)(C)C)c(C)n2CC2CC2)c(C)c1 [compound 410],7.1
4,CCc1ccccc1C(=O)/N=c1\sc(C(C)(C)C)c(C)n1CC [compound 150],15
5,CCOCCn1/c(=N/C(=O)c2cccc(C(F)(F)F)c2F)cc(C(C)(C)C)n1C [compound 488],4
6,CC(C)(C)c1nn(CC2CC2)/c(=N/C(=O)c2cccc(C(F)(F)F)c2F)s1 [compound 504],15.4
7,CC(C)OCCn1/c(=N/C(=O)c2cccc(C(F)(F)F)c2F)cc(C(C)(C)C)n1C [compound 493],1.9
8,CC#CCn1c(C)c(C(C)(C)C)s/c1=N\S(=O)(=O)c1cccc2ccccc12 [compound 427],5.9
9,CCn1c(C(C)(C)C)c/c(=N\C(=O)c2cccc(C(F)(F)F)c2F)n1CC1CC1 [compound 495],6.3
10,CC(C)(C)c1c/c(=N\C(=O)c2cc(C(F)(F)F)ccc2F)n(CC2CC2)o1 [compound 54],18.7
11,Cc1c(C(C)(C)C)s/c(=N\C(=O)c2cccc(C(F)(F)F)c2F)n1CC1CC1 [compound 250],1.1
12,CC(C)(C)c1c/c(=N\C(=O)c2cccc(C(F)(F)F)c2)n(CC2CC2)s1 [compound 57],3.8
13,Cc1c(C(C)(C)C)s/c(=N\S(=O)(=O)c2cccc(Cl)c2Cl)n1CC1CC1 [compound 399],6.8
14,Cc1c(C(C)(C)C)s/c(=N\S(=O)(=O)c2c(Cl)cccc2Cl)n1CC1CC1 [compound 402],15.4
15,Cc1c(C(C)(C)C)s/c(=N\C(=O)c2cccc(Cl)c2F)n1CC1CC1 [compound 225],3.9
16,Cc1c(C(=O)/N=c2\cc(C(C)(C)C)n(C)n2CC2CC2)cccc1C(F)(F)F [compound 470],10.6
17,"Cn1c(C(C)(C)C)c/c(=N\C(=O)c2cccc(C(F)(F)F)c2F)n1CC1CCC1 [compound 482, N-(5-t-butyl-2-cyclobutylmethyl-1,2-dihydro-1-methylpyrazol-3-ylidene)-2-fluoro-3-(trifluoromethyl)benzamide]",1.2
18,CCOc1ccncc1C(=O)/N=c1\sc(C(C)(C)C)nn1CC1CC1 [compound 513],16.9
19,CCCCn1c(C)c(C(C)(C)C)s/c1=N\S(=O)(=O)c1cccc2ccccc12 [compound 387],13.7
20,Cn1c(C(C)(C)C)c/c(=N\C(=O)c2cccc(C(F)(F)F)c2F)n1CC1CCCC1 [compound 485],1.1
